The results in this text go back to ChEMBL document CHEMBL5053494, “Novel halogenated arylvinyl-1,2,4 trioxanes as potent antiplasmodial as well as anticancer agents: Synthesis, bioevaluation, structure-activity relationship and in-silico studies” (Eur J Med Chem, 2021).

For the first data set, the system named is Plasmodium berghei. Briefly: Antimalarial activity against Plasmodium berghei ANKA infected in Balb/c mouse assessed as suppression of parasitemia at 50 mg/kg, po administered for 4 days by microscopic analysis. The data set is classed as functional. The conditions noted are these: time 4 day.
For `CCN(CC)CCCC(C)Nc1ccnc2cc(Cl)ccc12` (stereo not given) [CHLOROQUINE], the Activity came out at 100%.

Test system in a further data set: not listed separately
Briefly: Selectivity index, ratio of CC50 for human HEK293 cells to IC50 for antiplasmodial activity against chloroquine-resistant Plasmodium falciparum INDO. The data set is classed as toxicity. The conditions noted are these: HEK293 cells versus Plasmodium falciparum INDO.
For `C=C(c1ccc(Cl)c(Cl)c1Cl)C1COC2(CCCC2)OO1` (stereo not given), the selectivity ratio worked out at 72.
On the same count and under the same terms, to `C=C(c1ccc(Cl)cc1Cl)C1COC2(CCCCC2)OO1` (stereo not given) belongs 145.

Another data set concerns L02. Briefly: Anticancer activity against human L02 cells assessed as cell growth inhibition measured for 72 hrs by MTT assay. The conditions noted are these: L02, 72 h. The data set is classed as functional, cell-based. (In general: Tetrazolium assays rely on reduction of a dye to a coloured formazan, in cell work by metabolically active cells.)
Usually IC50 stands for the point on the concentration scale where inhibition reaches its midpoint. Turning to `C=C(c1ccc(Cl)c(Cl)c1Cl)C1COC2(CCCC2)OO1` (stereo not given), the IC50 was found to be 1.19 µM.
The same measure, in the same setting: with `C=C(c1ccc(Cl)cc1Cl)C1COC2(CCCCC2)OO1` (stereo not given) the figure was 3.69 µM.
Still for that read-out and setting: with `CCN(CC)CCCC(C)Nc1ccnc2cc(Cl)ccc12` (stereo not given) [CHLOROQUINE] the figure was 15 µM.

Test system in a further data set: not listed separately
Briefly: Selectivity ratio of IC50 for anticancer activity against human BEAS-2B cells to IC50 for anticancer activity against human A549 cells. The data set is classed as toxicity, cell-based. The conditions noted are these: BEAS-2B cells versus A549 cells, read-out: Ratio IC50.
For `C=C(c1ccc(Cl)c(Cl)c1Cl)C1COC2(CCCC2)OO1` (stereo not given), the selectivity ratio amounted to 16.7.
On the same count and under the same terms, to `C=C(c1ccc(Cl)cc1Cl)C1COC2(CCCCC2)OO1` (stereo not given) belongs 20.6.

Another data set concerns Plasmodium berghei. In words: Antimalarial activity against Plasmodium berghei ANKA infected in Balb/c mouse assessed as suppression of parasitemia at 50 mg/kg, ip administered for 4 days by microscopic analysis. The class given is functional. The conditions noted are these: time 4 day.
Consider `CCN(CC)CCCC(C)Nc1ccnc2cc(Cl)ccc12` (stereo not given) [CHLOROQUINE], for which the Activity is given as 100%.

The test system of another data set is Plasmodium falciparum. Briefly: Antiplasmodial activity against chloroquine-resistant Plasmodium falciparum INDO assessed as growth inhibition by SYBER green 1 dye based fluorescence assay. The class given is functional, organism-based.
Details: not given
In the case of `C=C(c1ccc(Cl)c(Cl)c1Cl)C1COC2(CCCC2)OO1` (stereo not given), the half-maximal inhibitory concentration (IC50) came out at 0.0206 µM.
In the case of `C=C(c1ccc(Cl)cc1Cl)C1COC2(CCCCC2)OO1` (stereo not given), the IC50 turned out to be 0.018 µM.

The test system of the next data set is BEAS-2B. In words: Anticancer activity against human BEAS-2B cells assessed as cell growth inhibition measured for 72 hrs by MTT assay. The class given is functional, cell-based.
Details: not given
In the case of `C=C(c1ccc(Cl)c(Cl)c1Cl)C1COC2(CCCC2)OO1` (stereo not given), the 50% inhibitory concentration (IC50) was 11.5 µM.
On to `C=C(c1ccc(Cl)cc1Cl)C1COC2(CCCCC2)OO1` (stereo not given), for which the 50% inhibitory concentration (IC50) was 16.7 µM.
As for `CCN(CC)CCCC(C)Nc1ccnc2cc(Cl)ccc12` (stereo not given) [CHLOROQUINE], the IC50 was 3.07 µM.

A further data set has as its system Plasmodium falciparum. In words: Antiplasmodial activity against artemisinin-resistant Plasmodium falciparum Cam 3.1 R539 assessed as growth inhibition by SYBER green 1 dye based fluorescence assay. The data set is classed as functional, organism-based.
Details: not given
With `C=C(c1ccc(Cl)cc1Cl)C1COC2(CCCCC2)OO1` (stereo not given), the IC50 stood at 0.109 µM.

In a further data set the test system is A549. Briefly: Induction of apoptosis in human A549 cells assessed as early apoptotic cells measured after 24 hrs by annexinV-FITC/propidium iodide staining based flow cytometry. The data set is classed as functional.
Details: not given
In general terms: In flow cytometry, cells or beads pass a laser one at a time.
Regarding `C=C(c1ccc(Cl)c(Cl)c1Cl)C1COC2(CCCC2)OO1` (stereo not given), the Activity turned out to be 93.6%.
Take `C=C(c1ccc(Cl)cc1Cl)C1COC2(CCCCC2)OO1` (stereo not given): the Activity is 78%.

The test system of a further data set is Plasmodium falciparum. In words: Resistance index, ratio of IC50 for antiplasmodial activity against artemisinin-resistant Plasmodium falciparum Cam 3.1 R539 to IC50 for antiplasmodial activity against chloroquine-resistant Plasmodium falciparum INDO. The class given is functional.
Details: not given
In the case of `C=C(c1ccc(Cl)cc1Cl)C1COC2(CCCCC2)OO1` (stereo not given), the “Ratio IC50” value was 6.09.

The subject of the next data set is A549. Briefly: Anticancer activity against human A549 cells assessed as cell growth inhibition measured for 72 hrs by MTT assay. The conditions noted are these: A549, 72 h. The data set is classed as functional, cell-based.
Turning to `C=C(c1ccc(Cl)c(Cl)c1Cl)C1COC2(CCCC2)OO1` (stereo not given), the concentration for half-maximal inhibition (IC50) was 0.69 µM.
For the compound `C=C(c1ccc(Cl)cc1Cl)C1COC2(CCCCC2)OO1` (stereo not given), the IC50 is 0.81 µM.
For `CCN(CC)CCCC(C)Nc1ccnc2cc(Cl)ccc12` (stereo not given) [CHLOROQUINE], the IC50 was 100 µM.

Test system in another data set: not listed separately
Briefly: Selectivity ratio of IC50 for anticancer activity against human L02 cells to IC50 for anticancer activity against human HepG2 cells. The class given is toxicity, cell-based. The conditions noted are these: L02 cells versus HepG2 cells, read-out: Ratio IC50.
In the case of `C=C(c1ccc(Cl)c(Cl)c1Cl)C1COC2(CCCC2)OO1` (stereo not given), the selectivity ratio is 0.13.
The same measure, in the same setting: with `C=C(c1ccc(Cl)cc1Cl)C1COC2(CCCCC2)OO1` (stereo not given) the figure was 0.097.

Another data set relates to HepG2. In words: Anticancer activity against human HepG2 cells assessed as cell growth inhibition measured for 72 hrs by MTT assay. The class given is functional, cell-based. The conditions noted are these: HepG2, 72 h.
For the compound `C=C(c1ccc(Cl)c(Cl)c1Cl)C1COC2(CCCC2)OO1` (stereo not given), the half-inhibitory concentration (IC50) turned out to be 8.45 µM.
On the same count and under the same terms, to `C=C(c1ccc(Cl)cc1Cl)C1COC2(CCCCC2)OO1` (stereo not given) belongs 17.6 µM.
For the compound `CCN(CC)CCCC(C)Nc1ccnc2cc(Cl)ccc12` (stereo not given) [CHLOROQUINE], the IC50 is 49 µM.

Test system in the next data set: not listed separately
In words: Cytotoxicity against human HEK293 cells assessed as cell viability measured for 24 hrs by MTT assay. The class given is cell-based.
Details: not given
Usually CC50 stands for the concentration giving 50% cytotoxicity. Take `C=C(c1ccc(Cl)c(Cl)c1Cl)C1COC2(CCCC2)OO1` (stereo not given): the 50% cytotoxic concentration (CC50) at 24 h stood at 1.44 µM.
For the compound `C=C(c1ccc(Cl)cc1Cl)C1COC2(CCCCC2)OO1` (stereo not given), the half-maximal cytotoxic concentration (CC50) at 24 h worked out at 2.47 µM.

Another data set deals with BEAS-2B. In words: Induction of apoptosis in human BEAS-2B cells assessed as late apoptotic cells measured after 24 hrs by annexinV-FITC/propidium iodide staining based flow cytometry. The class given is functional.
Details: not given
As for `C=C(c1ccc(Cl)c(Cl)c1Cl)C1COC2(CCCC2)OO1` (stereo not given), the Activity stood at 8.6%.
Same read-out and setting: with `C=C(c1ccc(Cl)cc1Cl)C1COC2(CCCCC2)OO1` (stereo not given) the figure was 4.5%.
